The text below walks through data of US20230190741A1, “LONG-LASTING REABSORBABLE SUBCUTANEOUS IMPLANT WITH SUSTAINED RELEASE OF PRE-CONCENTRATED PHARMACOLOGICALLY ACTIVE SUBSTANCE IN POLYMER FOR THE TREATMENT OF ERECTILE DYSFUNCTION AND BENIGN PROSTATIC HYPERPLASIA” (priority 2020, published 2023).

One data set concerns erectile dysfunction. Conditions: injection 10 mcg or 20 mcg applied directly to the penis, cited from earlier work.
The nature of data set [1]: half-life of the oral drug. In kind it is in vivo. Conditions: tadalafil vs sildenafil.
The conditions of data set [2]: oral administration; cited from earlier work.

Some results are limits rather than exact numbers.

In the case of `CCCCC[C@H](O)/C=C/[C@H]1[C@H](O)CC(=O)[C@@H]1CCCCCCC(=O)O` [alprostadil], in the data set with erectile dysfunction (depending on the patient), the duration of effect is no more than 2 h. Further, in the data set on erectile dysfunction, the “time until effect after application” value was 20 min.

On to `CN1CC(=O)N2[C@H](c3ccc4c(c3)OCO4)c3[nH]c4ccccc4c3C[C@@H]2C1=O` [tadalafil], for which the “half-life relative to half-life of sildenafil” value in data set [1] was determined as 4.38 times. For the same molecule, the “loss of drug ingested (first-pass metabolism plus absorptive process)” value in data set [2] is no more than 50%.
